Patent US20110230407A1, “HEPATOCYTE GROWTH FACTOR PATHWAY ACTIVATORS IN DEMYELINATING DISEASES AND CENTRAL NERVOUS SYSTEM TRAUMA” (priority 2005, published 2011)

Assays:
Type in all cases: cell-based
Schwann cells [1] = experiment: H2O2-induced apoptosis of Schwann cells (Apo-ONE Assay kit); settings: 0.5 mM H2O2 for 2 hours; HGF 50 ng/ml, mimetic 10 micromolar; FIG. 1
Experimental: HGF and small molecule HGF/SF mimetic protect Schwann cells against H2O2-induced apoptosis. Schwann cells were seeded in 96 well plates at a density of 5000 cells/well, overnight in serum-free media. Cells were treated with 0.5 mM H2O2 for 2 hours in the presence of vehicle (Veh), HGF (50 ng/ml) or HGF/SF mimetic (10 micromolar). Cells were assayed for apoptosis using the Apo-ONE Assay kit (Promega).

Schwann cells [2] = experiment: Myelin production by fluoromyelin staining, Schwann cells; settings: 4 hours
Experimental: HGF/SF and small molecule HGF/SF mimetic increase myelin production in Schwann cells. It is well-known that the primary function of oligodendrocytes and Schwann cells is myelin production. […] Cells were seeded in 3 well chamber slides at a density of 50,000 cells/well in serum free media for 24 hours. Then HGF/SF (50 ng/ml) or a small molecule HGF/SF mimetic (5 μM) were added to the same medium and cells incubated for an additional 4 hours. Cells were washed, and fluoromyelin (Molecular Probes) was added to each well (30 min exposure at room temperature), and cells observed under a confocal microscope (Olympus). […] To obtain semi-quantitative measurements of this increase in the fluoromyelin signal, a second experiment was performed. Schwann cells were seeded in 6 well plates at a density of 4×10^5 cells/well and treated with HGF (50 ng/ml) or mimetic (5 uM) for 4 hours. Fluoromyelin staining was performed as described above and relative fluorescence was measured using a fluorescence plate reader.

oligodendrocytes = experiment: Myelin production by fluoromyelin staining, oligodendrocytes; settings: HGF/SF 50 ng/ml, mimetic 5 μM, 4 hours
rat RSC96 Schwann cells = experiment: Schwann cell proliferation, [3H]-thymidine incorporation; settings: treated 16-24 hours, serum-free; FIGS. 3A and 3B
From the text: (§1) Small molecule HGF/SF agonist mimics HGF/SF's pro-proliferative effects. Oligodendrocytes and Schwann cells are both cells that support neuronal function by ensheathing neuronal axons with myelin. An individual supporting cell comprises a single segment of an axon's myelin sheath and is active in facilitating axonal growth. An important aspect of HGF/SF activity is this growth factor's ability to induce oligodendrocyte and Schwann cell proliferation. In order to evaluate small molecule HGF/SF mimetics for potential HGF/SF-like bioactivity, rat RSC96 Schwann cells (ATCC, Manassas, Va.) or mouse primary oligodendrocytes (Celprogen, San Pedro, Calif.) were seeded in 96-well plates at 5000 cells/well in serum-free medium for 16 hours. Cells were treated with test compound or HGF/SF (positive control) for 16-24 hours. [^3H]-thymidine was added to the medium with Schwann cells, WST1 cell proliferation reagent (Roche, Indianapolis, Ind.) was added to oligodendrocytes, and incubation was continued for another 4-5 hours. Schwann cells were washed with PBS and harvested. [^3H]-thymidine incorporation was determined and used as a measure of proliferation (increased DNA synthesis). Cells with WST1 reagent were read using a plate reader at an OD of 490 nm.

[3] = test system: mouse primary oligodendrocytes; experiment: Oligodendrocyte proliferation, WST1 reagent; settings: treated 16-24 hours, serum-free; FIGS. 3C and 3D
From the text: as §1

[4] = test system: fibroblasts lacking the Met receptor; experiment: Mitogenesis in fibroblasts lacking the Met receptor
Experimental: To determine whether mimetic-mediated Met phosphorylation induces similar intracellular signaling cascades as HGF/SF, and to assess whether these signaling events convey biologic activity, experiments were carried out using an Akt inhibitor and the phosphoinositide3-kinase inhibitor Wortmannin.

smooth muscle cells = experiment: Mitogenesis in smooth muscle cells lacking the Met receptor
Human neurons = experiment: Neuronal axon growth and cell density in human neurons; settings: 48 hours, FIG. 5
Experimental: In this experiment, the ability of HGF/SF and mimetic to activate axonal growth was assessed. Human neurons (ATCC) were seeded in 6-well plates (1000 cell/well) in media containing 1% FBS. Cells were treated with HGF/SF (50 ng/ml) or mimetic (5 micromolar) for 48 hours. […] Cell shape, size, and density are clearly different in the presence of HGF/SF and mimetic compared with control. […] In one experiment, neurons were incubated with conditioned media from Schwann cells (FIG. 5, right field). […] Thus, secreted growth factors present in Schwann cell media are ineffective (or are at least effects are below the level of detection) as cell mitogens.

NGF, BDNF, and NT-4 = experiment: Expression of neurotrophic growth factors in Schwann cells, Western blot; settings: Schwann cell protein extracts; FIG. 6
From the text: HGF/SF- and HGF/SF mimetic-activated Schwann cells show increased expression of neurotrophic growth factors.

Schwann cells [5] = experiment: Schwann cell migration, Migration Chamber; settings: 22 hours, quantified with Calcein; FIG. 7
Experimental: HGF/SF mimetic recapitulates HGF/SF activity in Schwann cells. To compare the direct effects of HGF/SF mimetic and HGF/SF on cell migration, an in vitro migration assay was employed using a Migration Chamber (BD Biosciences). 50,000 cells were seeded in the inner chamber for 22 hours in the presence of 0.4% or 10% FBS, HGF/SF, or mimetic. Cell number was quantified with […] Calcein using a fluorescence plate reader.

Substance: HGF/SF: Scatter factor / hepatocyte growth factor, pleiotropic growth factor, heparin binding heterodimeric protein signalling through Met
- cell viability after H2O2 (Schwann cells [1]): substantial improvement in cell viability
- increase in the fluoromyelin signal, relative fluorescence by plate reader (Schwann cells [2]; HGF 50 ng/ml, mimetic 5 uM, FIG. 2B): 3 fold
- fluoromyelin signal, confocal microscope (Schwann cells [2]; HGF/SF 50 ng/ml, mimetic 5 μM, FIG. 2A): intense increase
- myelin production in oligodendrocytes (oligodendrocytes): induce myelin production
- Schwann cell proliferation ([3H]-thymidine incorporation) (rat RSC96 Schwann cells): activate
- oligodendrocyte proliferation (WST1, OD 490 nm) [3]: activate
- mitogenesis in fibroblasts lacking the Met receptor [4]: neither the mimetic nor HGF/SF activated mitogenesis
- mitogenesis in smooth muscle cells, which also lack the Met receptor (smooth muscle cells): A similar result was obtained
- neuronal cell proliferation / cell density (Human neurons): activate neuronal cell proliferation
- neuronal axon growth (Human neurons; HGF/SF 50 ng/ml, mimetic 5 micromolar, 1% FBS): activate neuronal axon growth
- expression of NGF, BDNF, and NT-4 cytokines (NGF, BDNF, and NT-4): over-express
- Schwann cell migration (Schwann cells [5]): similarly increase Schwann cell migration
